The source made the active and inactive calls. The rule behind the calls is not given here.
Assays:
[1] = system: CD34-positive (myeloid/lymphoid) cell; assay: Expansion-promoting activity against human CD34+ cells assessed as increase in Lin-CD34+CD38-CD45RA-CD49f-CD90- multipotent progenitor cells measured after 4 days by FACS analysis; assay type: functional, cell-based
[2] = system: CD34-positive (myeloid/lymphoid) cell; assay: Expansion-promoting activity against human CD34+cells assessed as increase in CD34+/CD38- cells measured after 4 days by FACS analysis; assay type: functional, cell-based
[3] = Expansion-promoting activity against human CD34+ cells assessed as increase in Lin-CD34+CD38-CD45RA-CD49f+CD90- multipotent progenitor cells measured after 4 days by FACS analysis relative to control; assay type: functional, CD34-positive (myeloid/lymphoid) cell
[4] = Expansion of human CD34+cells measured after 4 days by FACS analysis; assay type: functional, CD34-positive (myeloid/lymphoid) cell

C[C@H](CC[C@@]1(O)OC2C[C@H]3[C@@H]4C[C@@H](O)[C@@]5(O)C[C@@H](O[C@@H]6O[C@H](CO)[C@@H](O)[C@H](O)[C@H]6O[C@@H]6O[C@@H](C)[C@H](O)[C@@H](O)[C@H]6O)CC[C@]5(C)[C@H]4CC[C@]3(C)[C@@]2(O)[C@@H]1C)CO[C@@H]1O[C@H](CO)[C@@H](O)[C@H](O)[C@H]1O (some centres undefined)
Activity [1]: Active

C/C(C(=O)CC[C@@H](C)CO[C@@H]1O[C@H](CO)[C@@H](O)[C@H](O)[C@H]1O)=C1/C(=O)C[C@H]2[C@@H]3C(=O)C=C4C[C@@H](O[C@@H]5O[C@H](CO)[C@@H](O[C@@H]6O[C@@H](C)[C@H](O)[C@@H](O)[C@H]6O)[C@H](O)[C@H]5O[C@@H]5O[C@@H](C)[C@H](O)[C@@H](O)[C@H]5O)CC[C@]4(C)[C@H]3CC[C@]12C
Activity [2]: Active

Cc1c(CC[C@@H](C)CO[C@@H]2O[C@H](CO)[C@@H](O)[C@H](O)[C@H]2O)oc2c1[C@@]1(C)CC[C@H]3[C@@H](CC=C4C[C@@H](O[C@@H]5O[C@H](CO)[C@@H](O)[C@H](O)[C@H]5O[C@@H]5O[C@@H](C)[C@H](O)[C@@H](O)[C@H]5O)CC[C@@]43C)[C@@H]1C2
Activity [2]: Active
fold change (FC) [3]: 0.9
fold change (FC) [4]: 5.5
Activity [1]: Active

C[C@H](CCC(=O)[C@@H](C)C1C(=O)C[C@H]2[C@@H]3CC=C4C[C@@H](O[C@@H]5O[C@H](CO)[C@@H](O)[C@H](O)[C@H]5O[C@@H]5O[C@@H](C)[C@H](O)[C@@H](O)[C@H]5O)CC[C@]4(C)[C@H]3CC[C@]12C)CO[C@@H]1O[C@H](CO)[C@@H](O)[C@H](O)[C@H]1O (some centres undefined)
Activity [2]: Active
fold change (FC) [3]: 1.8
fold change (FC) [4]: 8.4
Activity [1]: Active

C[C@H](CC[C@@]1(O)OC2C[C@H]3[C@@H]4C[C@@H](O)[C@@]5(O)C[C@@H](O[C@@H]6O[C@H](CO)[C@@H](O[C@@H]7O[C@@H](C)[C@H](O[C@@H]8O[C@@H](C)[C@H](O)[C@@H](O)[C@H]8O)[C@@H](O)[C@H]7O)[C@H](O)[C@H]6O[C@@H]6O[C@@H](C)[C@H](O)[C@@H](O)[C@H]6O)CC[C@]5(C)[C@H]4CC[C@]3(C)[C@@]2(O)[C@@H]1C)CO[C@@H]1O[C@H](CO)[C@@H](O)[C@H](O)[C@H]1O (some centres undefined)
fold change (FC) [3]: 1.8
fold change (FC) [4]: 8.4
Activity [1]: Active

C[C@H](CC[C@@]1(O)OC2C[C@H]3[C@@H]4CC=C5C[C@@H](O[C@@H]6O[C@H](CO)[C@@H](O[C@@H]7O[C@H](CO)[C@H](O)[C@@H](O)[C@H]7O)[C@H](O)[C@H]6O[C@@H]6O[C@@H](C)[C@H](O)[C@@H](O)[C@H]6O)CC[C@]5(C)[C@H]4CC[C@]3(C)[C@@]2(O)[C@@H]1C)CO[C@@H]1O[C@H](CO)[C@@H](O)[C@H](O)[C@H]1O (some centres undefined)
Activity [2]: Active
fold change (FC) [3]: 1.9
fold change (FC) [4]: 8.8
Activity [1]: Active

C/C(C(=O)CC[C@@H](C)CO[C@@H]1O[C@H](CO)[C@@H](O)[C@H](O)[C@H]1O)=C1/C(=O)C[C@H]2[C@@H]3CC=C4C[C@@H](O[C@@H]5O[C@H](CO)[C@@H](O)[C@H](O)[C@H]5O[C@@H]5O[C@@H](C)[C@H](O)[C@@H](O)[C@H]5O)CC[C@]4(C)[C@H]3CC[C@]12C
Activity [2]: Active
fold change (FC) [3]: 1
fold change (FC) [4]: 5.7
Activity [1]: Active

C/C(C(=O)CC[C@@H](C)CO[C@@H]1O[C@H](CO)[C@@H](O)[C@H](O)[C@H]1O)=C1/C(=O)C[C@H]2[C@@H]3CC=C4C[C@@H](O[C@@H]5O[C@H](CO)[C@@H](O[C@@H]6O[C@@H](C)[C@H](O)[C@@H](O)[C@H]6O)[C@H](O)[C@H]5O[C@@H]5O[C@@H](C)[C@H](O)[C@@H](O)[C@H]5O)CC[C@]4(C)[C@H]3CC[C@]12C
Activity [1]: Active

CC1=C2[C@](O)(C[C@H]3[C@@H]4C[C@@H](O)[C@@]5(O)C[C@@H](O[C@@H]6O[C@H](CO)[C@@H](O[C@@H]7O[C@@H](C)[C@H](O[C@@H]8O[C@@H](C)[C@H](O)[C@@H](O)[C@H]8O)[C@@H](O)[C@H]7O)[C@H](O)[C@H]6O[C@@H]6O[C@@H](C)[C@H](O)[C@@H](O)[C@H]6O)CC[C@]5(C)[C@H]4CC[C@]23C)C(C[C@@H](C)CO[C@@H]2O[C@H](CO)[C@@H](O)[C@H](O)[C@H]2O)C1=O (some centres undefined)
Activity [2]: Active
fold change (FC) [3]: 1.3
fold change (FC) [4]: 6.7
Activity [1]: Active

Cc1c(CC[C@@H](C)CO[C@@H]2O[C@H](CO)[C@@H](O)[C@H](O)[C@H]2O)oc2c1[C@@]1(C)CC[C@H]3[C@@H](C[C@@H](O)[C@@]4(O)C[C@@H](O[C@@H]5O[C@H](CO)[C@@H](O[C@@H]6O[C@@H](C)[C@H](O[C@@H]7O[C@@H](C)[C@H](O)[C@@H](O)[C@H]7O)[C@@H](O)[C@H]6O)[C@H](O)[C@H]5O[C@@H]5O[C@@H](C)[C@H](O)[C@@H](O)[C@H]5O)CC[C@]34C)[C@@H]1C2
Activity [2]: Active
fold change (FC) [3]: 1.6
fold change (FC) [4]: 7.7
Activity [1]: Active

C[C@H](CCC(=O)[C@@H](C)C1C(=O)C[C@H]2[C@@H]3CC=C4C[C@@H](O[C@@H]5O[C@H](CO)[C@@H](O[C@@H]6O[C@@H](C)[C@H](O)[C@@H](O)[C@H]6O)[C@H](O)[C@H]5O[C@@H]5O[C@@H](C)[C@H](O)[C@@H](O)[C@H]5O)CC[C@]4(C)[C@H]3CC[C@]12C)CO[C@@H]1O[C@H](CO)[C@@H](O)[C@H](O)[C@H]1O (some centres undefined)
Activity [2]: Active
Activity [1]: Active

CC1=C2[C@](O)(C[C@H]3[C@@H]4C[C@@H](O)[C@@]5(O)C[C@@H](O[C@@H]6O[C@H](CO)[C@@H](O[C@@H]7O[C@@H](C)[C@H](O)[C@@H](O)[C@H]7O)[C@H](O)[C@H]6O[C@@H]6O[C@@H](C)[C@H](O)[C@@H](O)[C@H]6O)CC[C@]5(C)[C@H]4CC[C@]23C)C(C[C@@H](C)CO[C@@H]2O[C@H](CO)[C@@H](O)[C@H](O)[C@H]2O)C1=O (some centres undefined)
Activity [2]: Active
Activity [1]: Active
